The values that follow come from patent publication EP3974434B1, “MACROLIDE DERIVATIVES, PREPARATION METHOD AND APPLICATION THEREOF” (Zhejiang Hisun Pharmaceutical Co., Ltd., priority 2019, dated 2020).

The subject of experiment [1] is KARPAS-299 (human anaplastic large cell lymphoma cell). As to the kind of experiment: Cell proliferation assay (CellTiter-Glo), KARPAS-299. It counts as cell-based. The conditions noted are these: 72 hours, NPM-ALK fusion. The source says: The following method was used to determine the effects of the compounds of the present invention on cell proliferation. H2228 cells (containing EML4-ALK fusion) were purchased from Cell Resource Center of Shanghai Institutes for Biological Sciences, Chinese Academy of Sciences. KARPAS-299 cells (containing NPM-ALK fusion) were purchased from Nanjing COBIOER Biotechnology Co., Ltd. The above two cell lines were used to determine the inhibition of the compounds on cell activities. The cells were cultured in an RPMI 1640 medium containing 10% fetal bovine serum, 100 U penicillin, 100 µg/mL streptomycin, and 1 mM Sodium Pyruvate. The cells were cultured in a 5% CO2 incubator at 37°C. The activity of the cells was determined by CellTiter-Glo® Luminescent Cell Viability Assay kit (Promega, article number: G7573).
(§1) The experimental methods were operated according to the steps in the kit instruction, and were briefly described as follows: a test compound was first dissolved in DMSO to prepare a storage solution, and then diluted in gradient with the corresponding cell culture medium to prepare a test sample. […] After the culture, 50 µL of CellTiter-Glo detection solution was added to each well, shaken for 5 minutes, and then stood for 10 minutes, and the luminescence values of each well were read on the microplate reader using a Luminance mode. […]

The next experiment has as its target T1, ROS1(G2032R) (Homo sapiens, UniProt P08922, G2032R).
T1 construct: purchased SignalChem R14-12BG-10
Put plainly: HTRF KinEASE-TK kinase activity inhibition assay, ROS1(G2032R). It counts as biochemical. As to conditions: ATP 0.5 µM. The text has this: The following method was used to determine the inhibition degrees of the compounds of the present invention on the activity of recombinant human ROS1 kinase in vitro. In this method, HTRF®KinEASE-TK tyrosine kinase kit (article No. 62TK0PEB) of Cisbio company was used, the principle of the kit was based on time-resolved fluorescence resonance energy transfer (TF-FRET), and the inhibition of the compounds on the activity of the ROS1 kinase was reflected by determining a phosphorylation degree of a biotinylated polypeptide substrate mediated by ROS1 kinase. For detailed experimental operation, please refer to the kit instruction. […]
The experimental flow was briefly described as follows: a test compound was first dissolved in DMSO to prepare a storage solution, and then diluted in gradient with a buffer provided in the kit. […] An ATP Km value concentration of each ROS1 protein was determined by using an ATP solution diluted in gradient (Sangon Biotech (Shanghai) Co., Ltd., A600311). […] After incubation, fluorescence intensity values of each well at an excitation wavelength of 304 nm, and emission wavelengths of 620 nm and 665 nM were determined in a TF-FRET mode on a microplate reader, and the fluorescence intensity ratio 665/620 of each hole was calculated. […]
(In general: In TR-FRET formats the signal depends on donor and acceptor labels being close together.)

The next experiment relates to BAF3 LMNA-TRKA^WT. As to the kind of experiment: Cell proliferation assay (CellTiter-Glo), BAF3 LMNA-TRKA WT. The experiment is classed as cell-based. As to conditions: Mus musculus, 72 hours. Here is the method: The following method was used to determine the effects of the compounds of the present invention on cell proliferation. BAF3 cells were purchased from National Infrastructure of Cell Line Resource (Beijing Headquarter). For TRKA, BAF3 cells were used to construct […] stable cell lines of BAF3 LMNA-TRKA^WT and BAF3 LMNA-TRKA^G667C.The above […] cell lines were used to determine the inhibition of the compounds on cell activities. The cells were cultured in an RPMI 1640 medium containing 10% fetal bovine serum, 100 U penicillin and 100 µg/mL streptomycin. The cells were cultured in a 5% CO2 incubator at 37°C. The activities of the cells were determined by CellTiter-Glo® Luminescent Cell Viability Assay kit (Promega, article number: G7573).
as §1, with “sample. A final concentration of the compound ranged from 1 µM to 0.15 nM.” for “sample.”
On the technique in general: ATP-based viability assays read luminescence as a measure of living cells.

T1 sequence (P08922 28-2347 G2032R): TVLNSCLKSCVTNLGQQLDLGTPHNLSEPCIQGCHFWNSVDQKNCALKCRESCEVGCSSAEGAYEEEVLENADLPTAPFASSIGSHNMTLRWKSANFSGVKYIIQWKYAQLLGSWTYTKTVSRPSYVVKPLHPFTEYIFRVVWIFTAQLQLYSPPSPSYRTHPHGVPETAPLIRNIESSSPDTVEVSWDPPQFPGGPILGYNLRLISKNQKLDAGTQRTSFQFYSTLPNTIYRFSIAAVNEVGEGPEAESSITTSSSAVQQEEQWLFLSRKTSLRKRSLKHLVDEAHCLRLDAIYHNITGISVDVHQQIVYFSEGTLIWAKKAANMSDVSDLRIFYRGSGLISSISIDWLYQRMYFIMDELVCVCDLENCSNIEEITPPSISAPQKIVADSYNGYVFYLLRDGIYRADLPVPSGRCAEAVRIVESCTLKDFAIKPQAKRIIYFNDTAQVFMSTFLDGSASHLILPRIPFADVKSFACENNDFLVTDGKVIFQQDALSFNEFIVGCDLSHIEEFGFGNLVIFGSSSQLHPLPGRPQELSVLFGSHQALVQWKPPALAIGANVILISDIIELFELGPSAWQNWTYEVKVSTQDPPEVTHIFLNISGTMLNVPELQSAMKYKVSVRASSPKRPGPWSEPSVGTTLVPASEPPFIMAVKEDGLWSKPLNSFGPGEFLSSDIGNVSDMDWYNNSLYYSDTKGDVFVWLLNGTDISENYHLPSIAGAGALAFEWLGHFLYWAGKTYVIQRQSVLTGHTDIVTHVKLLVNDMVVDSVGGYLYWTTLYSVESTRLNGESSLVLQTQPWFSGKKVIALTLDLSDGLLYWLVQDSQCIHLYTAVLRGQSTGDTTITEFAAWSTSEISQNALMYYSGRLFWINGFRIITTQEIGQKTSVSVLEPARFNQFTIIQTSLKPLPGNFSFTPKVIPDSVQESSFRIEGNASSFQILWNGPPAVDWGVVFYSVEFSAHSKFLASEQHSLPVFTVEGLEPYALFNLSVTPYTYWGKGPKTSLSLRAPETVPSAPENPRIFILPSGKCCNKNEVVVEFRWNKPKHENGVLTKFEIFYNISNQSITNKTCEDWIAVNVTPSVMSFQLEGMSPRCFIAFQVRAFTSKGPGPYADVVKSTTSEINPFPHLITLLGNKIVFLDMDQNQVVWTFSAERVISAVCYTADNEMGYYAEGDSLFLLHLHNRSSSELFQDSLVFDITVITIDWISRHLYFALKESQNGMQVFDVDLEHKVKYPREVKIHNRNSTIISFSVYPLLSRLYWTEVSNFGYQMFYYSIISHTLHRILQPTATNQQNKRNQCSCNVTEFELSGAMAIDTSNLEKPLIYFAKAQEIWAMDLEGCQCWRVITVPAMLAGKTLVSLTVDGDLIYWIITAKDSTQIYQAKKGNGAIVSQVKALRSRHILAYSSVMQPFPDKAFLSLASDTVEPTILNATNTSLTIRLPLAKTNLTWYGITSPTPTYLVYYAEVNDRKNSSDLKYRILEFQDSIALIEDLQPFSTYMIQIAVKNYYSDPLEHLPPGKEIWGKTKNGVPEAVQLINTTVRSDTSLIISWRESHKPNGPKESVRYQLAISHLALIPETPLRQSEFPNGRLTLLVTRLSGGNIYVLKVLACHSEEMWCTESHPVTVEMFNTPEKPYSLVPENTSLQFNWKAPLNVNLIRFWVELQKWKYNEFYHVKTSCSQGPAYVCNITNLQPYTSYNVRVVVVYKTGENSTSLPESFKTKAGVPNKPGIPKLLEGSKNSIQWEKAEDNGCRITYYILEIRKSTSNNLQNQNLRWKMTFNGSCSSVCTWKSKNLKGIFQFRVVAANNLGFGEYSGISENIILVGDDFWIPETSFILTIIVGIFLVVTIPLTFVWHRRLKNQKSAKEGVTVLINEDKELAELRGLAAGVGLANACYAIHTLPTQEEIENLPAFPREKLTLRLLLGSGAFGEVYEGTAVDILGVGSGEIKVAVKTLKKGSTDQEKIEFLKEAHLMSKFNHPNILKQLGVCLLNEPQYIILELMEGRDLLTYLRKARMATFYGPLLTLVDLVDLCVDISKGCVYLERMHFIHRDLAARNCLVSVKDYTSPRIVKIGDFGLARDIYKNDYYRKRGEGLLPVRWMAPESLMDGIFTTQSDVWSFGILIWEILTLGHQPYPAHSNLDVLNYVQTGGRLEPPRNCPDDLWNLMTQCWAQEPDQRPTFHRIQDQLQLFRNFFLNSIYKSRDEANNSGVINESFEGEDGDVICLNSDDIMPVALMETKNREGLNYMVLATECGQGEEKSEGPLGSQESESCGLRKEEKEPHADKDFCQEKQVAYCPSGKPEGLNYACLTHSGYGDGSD

Broadly, the IC50 is the midpoint of a concentration-inhibition curve. For `C[C@H]1Nc2ccn3ncc(c3n2)C(=O)NC[C@@]2(C)Cc3cc(F)cc1c3O2` [Example 8, (3R,11R)-6-fluoro-3,11-dimethyl-10-oxa-2,13,17,1 8,21-pentaazapentacyclo[13.5.2.1^8,11.0^4,9.0^18,22]tric osa-1(21),4,6,8,15(22),16,19-heptaen-14-one], the IC50 in experiment [1] worked out at 65.5 nM; against ROS1(G2032R), 0.34 nM; in the experiment on BAF3 LMNA-TRKA^WT it was 1.5 nM.

For `C[C@H]1Nc2ccn3nc(N)c(c3n2)C(=O)NC[C@@]2(C)Cc3cc(F)cc1c3O2` [Example 25, (3R,11R)-16-amino-6-fluoro-3,11-dimethyl-10-oxa-2,13,17,18,21-pentaazapentacyclo[13.5.2.1^8,11.0^4,9. 0^18,22]tricosa-1(21),4,6,8,15(22),16,19-heptaen-14-one], the IC50 in experiment [1] came out at 52.7 nM; at ROS1(G2032R), 2.11 nM; with BAF3 LMNA-TRKA^WT, 1.2 nM.
